Measurements from patent publication US20030150812A1, “Novel parallel throughput system” (priority 2001, published 2003).

Legend:
α3β2 nicotinic receptor = α3β2 nicotinic receptor (Homo sapiens, UniProt P17787+P32297); conditions: Column A with α3β2, 24 cm, 50 nM injection, 10 mM Amm Acetate pH 7.4 and 1 nM dinitrobenzoic acid, 261 nm
Protocol: (§1) A parallel screen was run using two separate columns containing the different nicotinic receptors α3β2 and […] in the separate columns. […] The mobile phase contained 10 mM Amm Acetate at pH 7.4 and 1 nM Dinitrobenzoic acid. The columns were 24 cm in length.

α3β4 nicotinic receptor = α3β4 nicotinic receptor (Homo sapiens, UniProt P30926+P32297); conditions: Column B with α3β4, 24 cm, 50 nM injection, 10 mM Amm Acetate pH 7.4 and 1 nM dinitrobenzoic acid, 261 nm
Chain of α3β4 nicotinic receptor (P32297 32-505): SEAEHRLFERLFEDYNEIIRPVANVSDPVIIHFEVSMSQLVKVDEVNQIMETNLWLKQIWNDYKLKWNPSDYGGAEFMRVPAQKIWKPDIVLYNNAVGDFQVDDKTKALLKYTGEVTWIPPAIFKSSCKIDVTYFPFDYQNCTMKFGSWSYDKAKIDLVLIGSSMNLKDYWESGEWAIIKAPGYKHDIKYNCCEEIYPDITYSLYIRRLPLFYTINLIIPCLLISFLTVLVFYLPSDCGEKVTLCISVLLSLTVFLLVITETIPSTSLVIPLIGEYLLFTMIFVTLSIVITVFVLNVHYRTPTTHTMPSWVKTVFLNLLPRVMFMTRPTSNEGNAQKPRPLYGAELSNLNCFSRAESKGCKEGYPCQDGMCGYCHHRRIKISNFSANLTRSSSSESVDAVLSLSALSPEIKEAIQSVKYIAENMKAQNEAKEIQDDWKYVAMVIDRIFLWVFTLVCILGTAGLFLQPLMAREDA
Chain of α3β4 nicotinic receptor (P30926 22-498): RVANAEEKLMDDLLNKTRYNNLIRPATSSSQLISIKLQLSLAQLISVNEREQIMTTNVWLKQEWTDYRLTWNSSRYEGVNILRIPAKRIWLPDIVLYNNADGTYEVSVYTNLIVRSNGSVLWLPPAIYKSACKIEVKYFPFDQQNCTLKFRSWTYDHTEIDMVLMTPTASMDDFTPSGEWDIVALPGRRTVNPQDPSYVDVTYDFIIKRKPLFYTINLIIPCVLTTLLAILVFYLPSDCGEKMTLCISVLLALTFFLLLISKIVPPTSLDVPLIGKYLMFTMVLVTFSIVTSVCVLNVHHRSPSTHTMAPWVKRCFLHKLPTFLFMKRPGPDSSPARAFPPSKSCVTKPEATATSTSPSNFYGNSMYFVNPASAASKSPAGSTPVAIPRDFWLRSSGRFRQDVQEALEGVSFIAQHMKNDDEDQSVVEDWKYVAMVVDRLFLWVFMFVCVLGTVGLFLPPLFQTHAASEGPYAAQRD
Protocol: as §1

Chain of α3β2 nicotinic receptor (P32297 32-505): as the sequence (P32297 32-505) above
Chain of α3β2 nicotinic receptor (P17787 26-502): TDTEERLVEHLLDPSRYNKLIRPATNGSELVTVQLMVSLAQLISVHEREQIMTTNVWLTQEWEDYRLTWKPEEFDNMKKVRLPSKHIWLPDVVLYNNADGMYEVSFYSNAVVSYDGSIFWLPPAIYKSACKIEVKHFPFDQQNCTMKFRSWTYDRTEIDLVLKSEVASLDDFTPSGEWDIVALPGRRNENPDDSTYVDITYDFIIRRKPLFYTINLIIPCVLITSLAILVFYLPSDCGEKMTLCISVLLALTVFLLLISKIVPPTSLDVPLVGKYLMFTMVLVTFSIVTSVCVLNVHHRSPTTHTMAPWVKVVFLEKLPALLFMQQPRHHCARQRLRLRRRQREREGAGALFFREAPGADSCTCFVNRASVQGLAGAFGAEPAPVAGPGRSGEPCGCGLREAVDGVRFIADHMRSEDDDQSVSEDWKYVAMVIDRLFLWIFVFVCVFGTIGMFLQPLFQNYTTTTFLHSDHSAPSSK

CN1CCCC1c1cccnc1 (centres unmarked) [nicotine]
time on receptor column (α3β2 nicotinic receptor): 2.25 min | time on receptor column (α3β4 nicotinic receptor): 0.98 min
